Reference: patent publication US20250171437A1 (Agios Pharmaceuticals,Inc., priority 2022, published 2025)

Biological target: T1, human PAH with the R408W mutation (A375 R408W cells) (Homo sapiens, UniProt P00439, R408W)
T1 construct: expressed in transfected cells
T1 sequence (P00439 1-452 R408W): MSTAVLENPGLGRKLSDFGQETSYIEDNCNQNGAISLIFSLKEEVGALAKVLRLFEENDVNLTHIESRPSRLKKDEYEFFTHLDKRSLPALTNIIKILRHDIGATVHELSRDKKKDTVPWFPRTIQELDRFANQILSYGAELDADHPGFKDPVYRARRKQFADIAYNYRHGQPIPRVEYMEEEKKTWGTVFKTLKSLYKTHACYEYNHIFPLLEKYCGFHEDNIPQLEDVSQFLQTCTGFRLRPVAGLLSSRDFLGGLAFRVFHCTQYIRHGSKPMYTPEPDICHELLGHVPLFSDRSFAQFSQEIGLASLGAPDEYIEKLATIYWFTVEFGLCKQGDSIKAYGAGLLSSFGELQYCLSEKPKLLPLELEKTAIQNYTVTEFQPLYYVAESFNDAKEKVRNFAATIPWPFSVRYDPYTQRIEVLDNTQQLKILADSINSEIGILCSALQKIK
Assay: Cell Based Phenylalanine Flux Assay
Conditions: A375 R408W cells; 24 hrs with compound, then 20 μM sepiapterin and 800 μM 13C9,15N-Phenylalanine for 4 hours; 13C-Tyrosine by LC-MS; average where tested multiple times
Summary of the method: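 Stable R408W PAH A375 cells: 24 h compound pretreatment in duplicate, then 4 h with 800 μM isotope-labelled Phe and 20 μM sepiapterin. Labelled Tyr output by LC-MS; AC50 averaged where repeated.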

Compound	AC50 [nM]
CC(C)(O)c1nc(C(F)F)c(C(=O)N2CCc3[nH]cnc3[C@@H]2c2nc3cc(F)cc(F)c3o2)o1 [Example 308, (R)-(4-(5,7-difluorobenzo[d]oxazol-2-yl)-6,7-dihydro-1H-imidazo[4,5-c]pyridin-5(4H)-yl)(4-(difluoromethyl)-2-(2-hydroxypropan-2-yl)oxazol-5-yl)methanone]	≤ 500
Cc1ccc2oc([C@H]3c4nc[nH]c4CCN3C(=O)c3oc(-c4cncn4C)nc3C(F)F)nc2c1 [Example 757, (R)-(4-(difluoromethyl)-2-(1-methyl-1H-imidazol-5-yl)oxazol-5-yl)(4-(5-methylbenzo[d]oxazol-2-yl)-6,7-dihydro-1H-imidazo[4,5-c]pyridin-5(4H)-yl)methanone]	1000 to 5000
Cc1nc(C(C)(C)O)oc1C(=O)N1CCc2[nH]cnc2[C@H]1c1nc2cccc(F)c2o1 [Example 268, (S)-(4-(7-fluorobenzo[d]oxazol-2-yl)-6,7-dihydro-1H-imidazo[4,5-c]pyridin-5(4H)-yl)(2-(2-hydroxypropan-2-yl)-4-methyloxazol-5-yl)methanone]	500 to 1000
CC(F)(F)c1ncoc1C(=O)N1CCc2[nH]cnc2[C@@H]1c1nc2cccc(F)c2o1 [Example 619, (R)-(4-(1,1-difluoroethyl)oxazol-5-yl)(4-(7-fluorobenzo[d]oxazol-2-yl)-6,7-dihydro-1H-imidazo[4,5-c]pyridin-5(4H)-yl)methanone]	1000 to 5000
O=C(c1nnc(-c2ccn(C(F)F)n2)o1)N1CCc2[nH]cnc2[C@H]1c1nc2cccc(F)c2o1 [Example 862, (S)-(5-(1-(difluoromethyl)-1H-pyrazol-3-yl)-1,3,4-oxadiazol-2-yl)(4-(7-fluorobenzo[d]oxazol-2-yl)-6,7-dihydro-1H-imidazo[4,5-c]pyridin-5(4H)-yl)methanone]	≤ 500
O=C(c1nnc(-c2ccn(C(F)F)n2)o1)N1CCc2[nH]cnc2[C@@H]1c1nc2ccccc2o1 [Example 845, (R)-(4-(benzo[d]oxazol-2-yl)-6,7-dihydro-1H-imidazo[4,5-c]pyridin-5(4H)-yl)(5-(1-(difluoromethyl)-1H-pyrazol-3-yl)-1,3,4-oxadiazol-2-yl)methanone]	1000 to 5000
Cc1cccc2nc([C@H]3c4nc[nH]c4CCN3C(=O)c3nnc(-c4cnn(C)c4)o3)oc12 [Example 566, (R)-(5-(1-methyl-1H-pyrazol-4-yl)-1,3,4-oxadiazol-2-yl)(4-(7-methylbenzo[d]oxazol-2-yl)-6,7-dihydro-1H-imidazo[4,5-c]pyridin-5(4H)-yl)methanone]	1000 to 5000
CC(C)(O)c1nc(Br)c(C(=O)N2CCc3[nH]cnc3[C@H]2c2nc3ccc(F)cc3o2)o1 [Example 249, (S)-(4-bromo-2-(2-hydroxypropan-2-yl)oxazol-5-yl)(4-(6-fluorobenzo[d]oxazol-2-yl)-6,7-dihydro-1H-imidazo[4,5-c]pyridin-5(4H)-yl)methanone]	500 to 1000
CC(C)(C)c1nnc(C(=O)N2CCc3[nH]cnc3[C@H]2c2nc3c(F)ccc(F)c3o2)o1 [Example 852, (S)-(5-(tert-butyl)-1,3,4-oxadiazol-2-yl)(4-(4,7-difluorobenzo[d]oxazol-2-yl)-6,7-dihydro-1H-imidazo[4,5-c]pyridin-5(4H)-yl)methanone]	≤ 500
C[C@@H](O)c1nc(C(F)F)c(C(=O)N2CCc3[nH]cnc3[C@@H]2c2nc3cc(F)ccc3o2)o1 [Example 152, (4-(difluoromethyl)-2-((R)-1-hydroxyethyl)oxazol-5-yl)((R)-4-(5-fluorobenzo[d]oxazol-2-yl)-6,7-dihydro-1H-imidazo[4,5-c]pyridin-5(4H)-yl)methanone]	1000 to 5000
COc1cccc2nc([C@H]3c4nc[nH]c4CCN3C(=O)c3ocnc3C(F)F)oc12 [Example 458, (R)-(4-(difluoromethyl)oxazol-5-yl)(4-(7-methoxybenzo[d]oxazol-2-yl)-6,7-dihydro-1H-imidazo[4,5-c]pyridin-5(4H)-yl)methanone]	≤ 500
O=C(CC1CC1)N1CCc2[nH]cnc2[C@@H]1c1nc2ccc(Br)cc2o1 [Example 4, (R)-1-(4-(6-bromobenzo[d]oxazol-2-yl)-6,7-dihydro-1H-imidazo[4,5-c]pyridin-5(4H)-yl)-2-cyclopropylethanone]	≥ 5000
Cc1ccc(F)c2oc([C@@H]3c4nc[nH]c4CCN3C(=O)c3ocnc3C(F)F)nc12 [Example 898, (S)-(4-(difluoromethyl)oxazol-5-yl)(4-(7-fluoro-4-methylbenzo[d]oxazol-2-yl)-6,7-dihydro-1H-imidazo[4,5-c]pyridin-5(4H)-yl)methanone]	≤ 500
O=C(c1oc(-c2ccccn2)nc1C(F)F)N1CCc2[nH]cnc2[C@H]1c1nc2cc(F)ccc2o1 [Example 85, (S)-(4-(difluoromethyl)-2-(pyridin-2-yl)oxazol-5-yl)(4-(5-fluorobenzo[d]oxazol-2-yl)-6,7-dihydro-1H-imidazo[4,5-c]pyridin-5(4H)-yl)methanone]	≤ 500
CC(C)(O)c1ncc(C(=O)N2CCc3[nH]cnc3[C@@H]2c2nc3cccc(F)c3o2)o1 [Example 714, (R)-(4-(7-fluorobenzo[d]oxazol-2-yl)-6,7-dihydro-1H-imidazo[4,5-c]pyridin-5(4H)-yl)(2-(2-hydroxypropan-2-yl)oxazol-5-yl)methanone]	1000 to 5000
O=C(c1ccnn1C(F)F)N1CCc2[nH]cnc2[C@H]1c1nc2c(F)cccc2o1 [Example 201, (S)-(1-(difluoromethyl)-1H-pyrazol-5-yl)(4-(4-fluorobenzo[d]oxazol-2-yl)-6,7-dihydro-1H-imidazo[4,5-c]pyridin-5(4H)-yl)methanone]	500 to 1000
CC(C)(O)c1nc(C(F)F)c(C(=O)N2CCc3[nH]cnc3[C@H]2c2nc3cccc(Br)c3o2)o1 [Example 460, (S)-(4-(7-bromobenzo[d]oxazol-2-yl)-6,7-dihydro-1H-imidazo[4,5-c]pyridin-5(4H)-yl)(4-(difluoromethyl)-2-(2-hydroxypropan-2-yl)oxazol-5-yl)methanone]	≤ 500
CNC(C)(C)c1nc(C(F)F)c(C(=O)N2CCc3[nH]cnc3[C@H]2c2nc3cc(F)ccc3o2)o1 [Example 221, (S)-(4-(difluoromethyl)-2-(2-(methylamino)propan-2-yl)oxazol-5-yl)(4-(5-fluorobenzo[d]oxazol-2-yl)-6,7-dihydro-1H-imidazo[4,5-c]pyridin-5(4H)-yl)methanone]	500 to 1000
CC(C)(O)c1nc(Cl)c(C(=O)N2CCc3[nH]cnc3[C@@H]2c2nc3c(F)cccc3o2)o1 [Example 273, (R)-(4-chloro-2-(2-hydroxypropan-2-yl)oxazol-5-yl)(4-(4-fluorobenzo[d]oxazol-2-yl)-6,7-dihydro-1H-imidazo[4,5-c]pyridin-5(4H)-yl)methanone]	1000 to 5000
O=C(c1oc(-c2ncccn2)nc1C(F)F)N1CCc2[nH]cnc2[C@@H]1c1nc2cc(F)ccc2o1 [Example 662, (R)-(4-(difluoromethyl)-2-(pyrimidin-2-yl)oxazol-5-yl)(4-(5-fluorobenzo[d]oxazol-2-yl)-6,7-dihydro-1H-imidazo[4,5-c]pyridin-5(4H)-yl)methanone]	1000 to 5000
O=C(c1oc(-c2ccccn2)nc1C(F)F)N1CCc2[nH]cnc2[C@@H]1c1nc2cccc(F)c2o1 [Example 588, (R)-(4-(difluoromethyl)-2-(pyridin-2-yl)oxazol-5-yl)(4-(7-fluorobenzo[d]oxazol-2-yl)-6,7-dihydro-1H-imidazo[4,5-c]pyridin-5(4H)-yl)methanone]	≤ 500
Cc1ccc(C)c2oc([C@@H]3c4nc[nH]c4CCN3C(=O)c3ocnc3C(F)F)nc12 [Example 890, (S)-(4-(difluoromethyl)oxazol-5-yl)(4-(4,7-dimethylbenzo[d]oxazol-2-yl)-6,7-dihydro-1H-imidazo[4,5-c]pyridin-5(4H)-yl)methanone]	≤ 500
O=C(c1oc(N2CCC(F)CC2)nc1C(F)F)N1CCc2[nH]cnc2[C@H]1c1nc2cc(F)ccc2o1 [Example 401, (S)-(4-(difluoromethyl)-2-(4-fluoropiperidin-1-yl)oxazol-5-yl)(4-(5-fluorobenzo[d]oxazol-2-yl)-6,7-dihydro-1H-imidazo[4,5-c]pyridin-5(4H)-yl)methanone]	≤ 500

Same assay, conditions: A375 cells expressing R408W PAH; 24 hrs with compound, then 20 μM sepiapterin and 800 μM 13C9,15N-Phenylalanine for 4 hours; 13C-Tyrosine by LC-MS; average where tested multiple times

Compound	AC50 [nM]
O=C(c1nnc(-c2cn[nH]c2)o1)N1CCc2[nH]cnc2C1c1nc2c(F)cccc2o1 (centres unmarked)	1000 to 5000
O=C(c1cnc(N2CCC(F)CC2)o1)N1CCc2[nH]cnc2C1c1nc2cc(F)ccc2o1 (centres unmarked)	≥ 5000
Nc1ccc2c(C(=O)N3CCc4[nH]cnc4C3c3nc4cc(F)ccc4o3)cnn2c1 (centres unmarked)	1000 to 5000
CC(C)(O)c1ncc(C(=O)N2CCc3[nH]cnc3C2c2nc3ccc(F)c(F)c3o2)o1 (centres unmarked)	1000 to 5000
CNCc1ccc2c(C(=O)N3CCc4[nH]cnc4C3c3nc4cc(F)ccc4o3)cnn2c1 (centres unmarked)	≥ 5000
CN(C)CCOc1ccc2c(C(=O)N3CCc4[nH]cnc4C3c3nc4cc(F)ccc4o3)cnn2c1 (centres unmarked)	≥ 5000
O=C(c1cnn2cc(OCCn3cccn3)ccc12)N1CCc2[nH]cnc2C1c1nc2cc(F)ccc2o1 (centres unmarked)	≥ 5000
COc1ccc(-c2nnc(C(=O)N3CCc4[nH]cnc4C3c3nc4cc(C(F)(F)F)ccc4o3)o2)nc1 (centres unmarked)	1000 to 5000
O=C(c1nnc(-c2c[nH]nc2C(F)(F)F)o1)N1CCc2[nH]cnc2C1c1nc2cc(F)ccc2o1 (centres unmarked)	1000 to 5000
